Molecular target: SK channel
Assay: competitive apamin-binding inhibition assay (same manner as WO02/079189, Experiment 1)
Conditions: competitive binding assay against apamin, a selective SK channel blocker; read-out: apamin-binding inhibitory activity (IC50)

In the case of `CCOc1cccc(Cn2ncc3c(N4CCN(C(=O)c5ccc(N(CCN(C)C)C(=O)C6CC6)cc5)CC4)ncnc32)c1` [1-(3-ethoxybenzyl)-4-[4-[4-[N-(cyclopropyl-carbonyl)-N-[2-(dimethylamino)ethyl]amino]benzoyl]piperazin-1-yl]-1H-pyrazolo[3,4-d]pyrimidine], the IC50 is reported as 50 nM.

From patent US7384952B2, “Pyrazolopyrimidine compound and a process for preparing the same” (Mitsubishi Tanabe Pharma Corporation, priority 2003, dated 2008)
